According to patent US9617286B2, “Fungicide N-[(trisubstitutedsilyl)methyl]-carboxamide derivatives” (BAYER INTELLECTUAL PROPERTY GMBH, priority 2011, dated 2017):

Assays:
Puccinia recondita = assay: In vivo preventive test on Puccinia recondita (brown rust on wheat); settings: preventive spray, 500 ppm of active ingredient, grading 12 days after contamination
Experimental: Wheat plants (“Scipion” variety), sown in starter cups on a 50/50 peat soil pozzolana substrate and grown at 22° C., are treated at the 1 leaf stage (10 cm height) by spraying with the active ingredient prepared as described above. Plants, used as controls, are treated with the mixture of acetone/tween/DMSO/water not containing the active material. After 24 hours, the plants are contaminated by spraying the leaves with an aqueous suspension of Puccinia recondita spores (100 000 spores per mL). The spores are collected from an infected plant and are suspended in water containing 2.5 mL/L of Tween 80 at 10%. The contaminated wheat plants are incubated for 24 hours at 20° C. and at 100% relative humidity, and then for 10 days at 20° C. and at 70-80% relative humidity. Grading (% of efficacy) is carried out 12 days after the contamination, in comparison with the control plants.

[1] = log P by HPLC on reversed-phase column (C 18), EEC Directive 79/831 Annex V.A8; type: physicochemical; settings: 40° C., 0.1% aqueous formic acid and acetonitrile, linear gradient 10% to 90% acetonitrile
Experimental: In table 1, the log P values were determined in accordance with EEC Directive 79/831 Annex V.A8 by HPLC (High Performance Liquid Chromatography) on a reversed-phase column (C 18), using the method described below:
Temperature: 40° C.; Mobile phases: 0.1% aqueous formic acid and acetonitrile; linear gradient from 10% acetonitrile to 90% acetonitrile.
Calibration was carried out using unbranched alkan-2-ones (comprising 3 to 16 carbon atoms) with known log P values (determination of the log P values by the retention times using linear interpolation between two successive alkanones). lambda-max-values were determined using UV-spectra from 200 nm to 400 nm and the peak values of the chromatographic signals.

Septoria tritici = assay: In vivo preventive test on Septoria tritici (wheat); settings: preventive spray, 500 ppm of active ingredient, grading 24 days after contamination
Experimental: Wheat plants (“Scipion” variety), sown in starter cups on a 50/50 peat soil pozzolana substrate and grown at 22° C., are treated at the 1 leaf stage (10 cm height) by spraying with the active ingredient prepared as described above. Plants, used as controls, are treated with the mixture of acetone/tween/DMSO/water not containing the active material. After 24 hours, the plants are contaminated by spraying the leaves with an aqueous suspension of cryopreserved Septoria tritici spores (500 000 spores per mL). The contaminated wheat plants are incubated for 72 hours at 18° C. and at 100% relative humidity, and then for 21 days at 90% relative humidity. Grading (% of efficacy) is carried out 24 days after the contamination, in comparison with the control plants.

Alternaria brassicae = assay: In vivo preventive test on Alternaria brassicae (leaf spot on radish); settings: preventive spray, 500 ppm of active ingredient, grading 6 days after contamination
Experimental: Radish plants (“Pernod Clair” variety), sown in starter cups on a 50/50 peat soil pozzolana substrate and grown at 17° C., are treated at the cotyledon stage by spraying with the active ingredient prepared as described above. Plants, used as controls, are treated with the mixture of acetone/tween/DMSO/water not containing the active material. After 24 hours, the plants are contaminated by spraying the cotyledons with an aqueous suspension of Alternaria brassicae spores (50 000 spores per mL). The spores are collected from a 15-day-old culture. The contaminated radish plants are incubated at 20° C. and at 100% relative humidity. Grading (% of efficacy) is carried out 6 days after the contamination, in comparison with the control plants.

Sphaerotheca fuliginea = assay: In vivo preventive test on Sphaerotheca fuliginea (powdery mildew on cucurbits); settings: gherkin plants, preventive spray, 500 ppm of active ingredient, grading 12 days after contamination
Experimental: Gherkin plants (“Vert petit de Paris” variety), sown in starter cups on a 50/50 peat soil-pozzolana substrate and grown at 24° C., are treated at the Z11 cotyledon stage by spraying with the active ingredient prepared as described above. Plants, used as controls, are treated with the mixture of acetone/tween/DMSO/water not containing the active material. After 24 hours, the plants are contaminated by spraying the cotyledons with an aqueous suspension of Sphaerotheca fuliginea spores (100 000 spores per mL). The spores are collected from infected plants. The contaminated gherkin plants are incubated at about 20° C. and at 70-80% relative humidity. Grading (% of efficacy) is carried out 12 days after the contamination, in comparison with the control plants.

Pyrenophora teres = assay: In vivo preventive test on Pyrenophora teres (barley); settings: preventive spray (DMF/alkylaryl polyglycol ether), 500 ppm of active ingredient, evaluated 7-9 days after inoculation
Experimental: Solvent: 49 parts by weight of N,N-dimethylformamide Emulsifier: 1 part by weight of alkylaryl polyglycol ether To produce a suitable preparation of active compound, 1 part by weight of active compound is mixed with the stated amounts of solvent and emulsifier, and the concentrate is diluted with water to the desired concentration. To test for preventive activity, young plants are sprayed with the preparation of active compound at the stated rate of application. One day after this treatment, the plants are inoculated with an aqueous spore suspension of Pyrenophora teres. The plants remain for 48 hours in an incubation cabinet at 22° C. and a relative atmospheric humidity of 100%. Then the plants are placed in a greenhouse at a temperature of approximately 20° C. and a relative atmospheric humidity of approximately 80%.

Alternaria solani = assay: In vivo preventive test on Alternaria solani (tomato); settings: preventive spray, 500 ppm of active ingredient, evaluated 7 days after inoculation
Experimental: Solvent: 49 parts by weight of N,N-dimethylformamide Emulsifier: 1 part by weight of alkylaryl polyglycol ether To produce a suitable preparation of active compound, 1 part by weight of active compound is mixed with the stated amounts of solvent and emulsifier, and the concentrate is diluted with water to the desired concentration. To test for preventive activity, young plants are sprayed with the preparation of active compound at the stated rate of application. One day after this treatment, the plants are inoculated with an aqueous spore suspension of Alternaria solani. The plants remain for one day in an incubation cabinet at approximately 22° C. and a relative atmospheric humidity of 100%. Then the plants are placed in an incubation cabinet at approximately 20° C. and a relative atmospheric humidity of 96%.

SMILES | logP [1] | Efficacy (Puccinia recondita) | Efficacy (Septoria tritici) | Efficacy (Alternaria brassicae) | Efficacy (Sphaerotheca fuliginea) | Efficacy (Pyrenophora teres) | Efficacy (Alternaria solani)
C[Si](C)(CNC(=O)c1cccnc1Cl)c1ccccc1 [Example 3] | 2.61 | 75% | 90% |  |  |  | 
C[Si](C)(CN(C(=O)c1cccnc1C(F)F)C1CC1)c1ccccc1 [Example 5] | 3.44 |  | 80% | 96% | 89% |  | 
C[Si](C)(CNC(=O)c1nccnc1C(F)(F)F)c1ccccc1 [Example 7] | 3.15 |  | 93% |  |  | 100% | 
C[Si](C)(CN(C(=O)c1cccnc1C(F)(F)F)C1CC1)c1ccccc1 [Example 8] | 3.89 |  | 100% | 88% |  | 100% | 
C[Si](C)(CN(C(=O)c1nccnc1C(F)(F)F)C1CC1)c1ccccc1 [Example 9] | 4.13 |  | 86% |  |  | 100% | 
Cc1ccccc1[Si](C)(C)CN(C(=O)c1nccnc1C(F)(F)F)C1CC1 [Example 10] | 4.41 |  | 79% | 88% | 78% | 100% | 
Cc1ccccc1[Si](C)(C)CN(C(=O)c1cccnc1C(F)(F)F)C1CC1 [Example 11] | 4.18 | 88% |  | 88% | 94% | 97% | 
Cc1ccccc1[Si](C)(C)CN(C(=O)c1cccnc1C(F)F)C1CC1 [Example 12] | 3.73 |  | 79% | 88% |  | 97% | 
Cc1ccccc1[Si](C)(C)CN(C(=O)c1cccnc1Cl)C1CC1 [Example 13] | 3.80 |  | 97% |  |  | 100% | 
C[Si](C)(CN(C(=O)c1cccnc1C(F)(F)F)C1CC1)c1ccccc1F [Example 15] | 3.96 | 75% | 71% |  | 72% | 100% | 
C[Si](C)(CN(C(=O)c1cccnc1C(F)F)C1CC1)c1ccccc1F [Example 16] | 3.51 |  | 71% | 95% |  | 100% | 
C[Si](C)(CN(C(=O)c1cccnc1Cl)C1CC1)c1ccccc1F [Example 17] | 3.58 |  | 79% |  |  | 86% | 
CCc1ccccc1[Si](C)(C)CN(C(=O)c1nccnc1C(F)(F)F)C1CC1 [Example 21] | 4.77 | 75% | 86% |  | 98% | 100% | 
C[Si](C)(CN(C(=O)c1cccnc1C(F)F)C1CC1)c1ccccc1Cl [Example 28] | 3.83 |  |  |  |  | 100% | 89%
C[Si](C)(CNC(=O)c1cccnc1C(F)F)c1cccc(Cl)c1 [Example 29] | 3.15 |  |  |  |  | 95% | 95%
CC[Si](C)(CN(C(=O)c1cccnc1Cl)C1CC1)c1ccccc1Cl (stereo not drawn) [Example 38] | 4.34 |  | 80% |  |  |  | 
C[Si](C)(CNC(=O)c1cccnc1C(F)(F)F)c1ccccc1Cl [Example 39] | 3.25 |  | 96% |  |  |  | 
C[Si](C)(CNC(=O)c1cccnc1Cl)c1ccccc1Cl [Example 40] | 2.94 |  | 96% |  |  |  | 
C[Si](C)(CNC(=O)c1nccnc1C(F)(F)F)c1ccccc1Cl [Example 41] | 3.50 |  | 90% |  | 78% |  | 

Now from value to compound, other results behind:

logP [1] | SMILES | Efficacy (Puccinia recondita) | Efficacy (Septoria tritici) | Efficacy (Alternaria brassicae) | Efficacy (Sphaerotheca fuliginea) | Efficacy (Pyrenophora teres) | Efficacy (Alternaria solani)
4.41 | C[Si](C)(CN(C(=O)c1cccnc1C(F)(F)F)C1CC1)c1ccc(F)cc1Cl [Example 47] |  | 93% | 75% |  | 97% | 
4.59 | C[Si](C)(CN(C(=O)c1nccnc1C(F)(F)F)C1CC1)c1cc(F)ccc1Cl [Example 49] | 88% | 100% | 75% |  | 97% | 
3.89 | C[Si](C)(CN(C(=O)c1cccnc1C(F)F)C1CC1)c1cc(F)ccc1Cl [Example 51] | 88% | 100% |  |  | 97% | 
4.67 | C[Si](C)(CN(C(=O)c1nccnc1C(F)(F)F)C1CC1)c1ccc(F)cc1Cl [Example 52] |  | 97% | 100% | 94% | 100% | 
4.61 | C[Si](C)(CN(C(=O)c1nccnc1C(F)(F)F)C1CC1)c1ccccc1C(F)(F)F [Example 54] |  | 93% |  | 83% | 100% | 
4.39 | C[Si](C)(CN(C(=O)c1cccnc1C(F)(F)F)C1CC1)c1ccccc1C(F)(F)F [Example 55] |  | 64% |  |  | 97% | 
3.94 | C[Si](C)(CN(C(=O)c1cccnc1C(F)F)C1CC1)c1ccccc1C(F)(F)F [Example 56] |  | 100% | 88% | 83% | 100% | 
3.69 | C[Si](C)(CNC(=O)c1cccnc1C(F)F)c1cc(Cl)cc(Cl)c1 [Example 63] | 97% | 96% |  | 71% | 95% | 95%
3.27 | C[Si](C)(CN(C(=O)c1cccnc1C(F)F)C1CC1)c1ccsc1 [Example 87] |  |  |  |  | 100% | 88%
3.72 | C[Si](C)(CN(C(=O)c1cccnc1C(F)(F)F)C1CC1)c1ccsc1 [Example 91] |  |  |  |  | 70% | 78%
4.16 | C[Si](C)(Cc1cccc(Cl)c1)CN(C(=O)c1cccnc1C(F)F)C1CC1 [Example 104] |  |  |  |  | 80% | 90%
4.74 | C[Si](C)(Cc1ccc(Cl)cc1Cl)CN(C(=O)c1cccnc1C(F)F)C1CC1 [Example 110] |  |  |  |  | 95% | 70%
4.77 | C[Si](C)(Cc1cc(Cl)cc(Cl)c1)CN(C(=O)c1cccnc1C(F)F)C1CC1 [Example 117] |  |  |  |  | 90% | 75%
